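Values below derive from 48-hour exposures of cells grown in 96-well plates, with endpoints linearly interpolated between the two concentrations bracketing the appropriate inhibition level. The concentration for full growth arrest is given as TGI.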
Key:
Experiment in all cases: NCI-60 cell line screen, 48 h
[1] = test system: LOX IMVI melanoma
[2] = test system: SNB-19 CNS
[3] = test system: HCT-116 colon
[4] = test system: SK-MEL-28 melanoma
[5] = test system: MOLT-4 leukemia
[6] = test system: UO-31 renal
[7] = test system: OVCAR-5 ovarian
[8] = test system: SNB-75 CNS
[9] = test system: HT29 colon
[10] = test system: NCI-H226 lung
[11] = test system: SK-MEL-5 melanoma
[12] = test system: UACC-62 melanoma
[13] = test system: OVCAR-4 ovarian
[14] = test system: CAKI-1 renal
[15] = test system: CCRF-CEM leukemia
[16] = test system: COLO 205 colon
[17] = test system: T-47D breast
[18] = test system: A549 NSCLC
[19] = test system: SN12C renal
[20] = test system: NCI-H23 lung
[21] = test system: TK-10 renal
[22] = test system: HOP-62 NSCLC
[23] = test system: HOP-92 NSCLC
[24] = test system: A498 renal
[25] = test system: U251 CNS
[26] = test system: MCF7 breast
[27] = test system: SR leukemia
[28] = test system: HCC-2998 colon
[29] = test system: ACHN renal
[30] = test system: NCI-H460 lung
[31] = test system: NCI/ADR-RES ovarian
[32] = test system: SF-295 CNS
[33] = test system: SK-OV-3 ovarian
[34] = test system: KM12 colon
[35] = test system: HS 578T breast
[36] = test system: SW-620 colon
[37] = test system: MDA-MB-231 breast
[38] = test system: DU-145 prostate
[39] = test system: HL-60(TB) leukemia
[40] = test system: SF-268 CNS
[41] = test system: K-562 leukemia
[42] = test system: MDA-N
[43] = test system: OVCAR-8 ovarian
[44] = test system: 786-0 renal
[45] = test system: M14 melanoma
[46] = test system: SF-539 CNS
[47] = test system: OVCAR-3 ovarian
[48] = test system: SK-MEL-2 melanoma
[49] = test system: RPMI-8226 leukemia
[50] = test system: RXF 393 renal
[51] = test system: UACC-257 melanoma
[52] = test system: MDA-MB-435
[53] = test system: PC-3 prostate
[54] = test system: IGROV1 ovarian
[55] = test system: EKVX NSCLC

In the case of `CCOC(=O)c1sc2[n+](c1C)C(=O)/C(=C/c1ccc([N+](=O)[O-])cc1)S2`, the TGI [1] is reported as 61.1 µM, the TGI [2] is reported as over 100 µM and the TGI [3] is reported as 54.7 µM. It also gave a TGI [4] of over 100 µM, a TGI [5] of 53.5 µM and a TGI [6] of 33.4 µM. The TGI [7] was over 100 µM, the TGI [8] was 49.7 µM and the TGI [9] was 41.9 µM. The TGI [10] was 58.4 µM, the TGI [11] was 72.1 µM and the TGI [12] was 40.3 µM. It also gave a TGI [13] of over 100 µM, a TGI [14] of 37.7 µM and a TGI [15] of over 100 µM. It also gave a TGI [16] of 68.7 µM, a TGI [17] of 77.2 µM and a TGI [18] of over 100 µM. It also gave a TGI [19] of over 100 µM, a TGI [20] of 48.4 µM and a TGI [21] of 50.7 µM. It also gave a TGI [22] of 74 µM, a TGI [23] of over 100 µM and a TGI [24] of over 100 µM. It also gave a TGI [25] of 40.3 µM, a TGI [26] of 62.6 µM and a TGI [27] of 57.7 µM. It also gave a TGI [28] of 37.5 µM, a TGI [29] of over 100 µM and a TGI [30] of 45 µM. It also gave a TGI [31] of 42.5 µM, a TGI [32] of 64.4 µM and a TGI [33] of 64.6 µM. The TGI [34] was 47.5 µM, the TGI [35] was 67 µM and the TGI [36] was 73.5 µM. The TGI [37] was over 100 µM, the TGI [38] was 92.3 µM and the TGI [39] was over 100 µM. It also gave a TGI [40] of 47.3 µM, a TGI [41] of 83.4 µM and a TGI [42] of 66.9 µM. It also gave a TGI [43] of 69.9 µM, a TGI [44] of 56.8 µM and a TGI [45] of over 100 µM. The TGI [46] was 54.7 µM, the TGI [47] was 24.1 µM and the TGI [48] was 51.2 µM. For the same compound, the TGI [49] was 67.3 µM, the TGI [50] was 81.5 µM and the TGI [51] was 98 µM. It also gave a TGI [52] of 46.2 µM and a TGI [53] of 57.4 µM.

For `O=C(O)CCC(=O)c1ccc(Cl)cc1`, the TGI [54] was over 100 µM, the TGI [1] was over 100 µM and the TGI [2] was over 100 µM. The TGI [3] was over 100 µM, the TGI [4] was over 100 µM and the TGI [5] was over 100 µM. For the same compound, the TGI [6] was over 100 µM, the TGI [7] was over 100 µM and the TGI [8] was over 100 µM. For the same compound, the TGI [9] was over 100 µM, the TGI [10] was over 100 µM and the TGI [55] was over 100 µM. It also gave a TGI [11] of over 100 µM, a TGI [13] of over 100 µM and a TGI [14] of over 100 µM. It also gave a TGI [15] of over 100 µM, a TGI [16] of over 100 µM and a TGI [17] of over 100 µM. It also gave a TGI [18] of over 100 µM, a TGI [19] of over 100 µM and a TGI [22] of over 100 µM. For the same compound, the TGI [23] was over 100 µM, the TGI [27] was over 100 µM and the TGI [32] was over 100 µM. The TGI [33] was over 100 µM, the TGI [34] was over 100 µM and the TGI [36] was over 100 µM. It also gave a TGI [38] of over 100 µM, a TGI [39] of over 100 µM and a TGI [41] of over 100 µM. For the same compound, the TGI [42] was over 100 µM, the TGI [43] was over 100 µM and the TGI [44] was over 100 µM. For the same compound, the TGI [45] was over 100 µM, the TGI [46] was over 100 µM and the TGI [47] was over 100 µM. The TGI [49] was over 100 µM, the TGI [50] was over 100 µM and the TGI [52] was over 100 µM.
